According to US20030176356A1, “Endothelin antagonists and endothelin-converting enzyme inhibitors for the treatment of glaucoma” (University of North Texas Health Science Center, priority 2001, published 2003):
“Also recorded” adds a separate entry of the source. No end group written: not given here.

How the values were obtained:
NOS-2 = NOS-2 mRNA expression in retina after intravitreal injection, RT-PCR; assay type: in vivo, Brown Norway rats; conditions: intravitreal 2 mmoles, 4 hours or 24 hours post-injection
Method: Elevated NOS-2 expression and peroxynitrite labeling are observed in glaucomatous retina and optic nerve head and are considered to be neurotoxic, which promote retinal ganglion cell death. ET-1 was injected in the left eye (OS) of rats while the right eye served as an contralateral control. Saline was also injected in some rats.

[1] = system: human non-pigmented ciliary epithelial (HNPE) cells; experiment: Nitric oxide release from HNPE cells (nitrite, Griess colorimetric assay); assay type: cell-based; conditions: 100 nM ET-1, 24 hours; control 14.4±1.8 μM nitrite
Method: The effect of endothelin-1 (ET-1) and PD-142893, an ETA/B receptor antagonist, on nitric oxide (“NO”) release from human non-pigmented ciliary epithelial (HNPE) cells are illustrated in FIG. 6. The NO released into the culture media from HNPE cells grown in 24-well plates and treated with ET-1 (100 nM) for 24 hours was converted to nitrites. The total amount of nitrites was measured using the Griess colorimetric assay. HNPE cells were pre-treated with PD-142893 (1 μM) for 30 minutes and then 100 nM ET-1 was also added and incubated for 24 hours. The values in FIG. 6 represent the mean±SEM of a ratio between the nitrite produced under experimental conditions divided by the nitrite produced in control cells, which corresponded to 14.4±1.8 μM and controls were expressed as 100% (n=3). Statistical significance of the nitrite released from ET-1 (100 nM) treatment versus the control are denoted with an asterisk (“*”). Statistical significance of the nitrite released from PD-142893+ET-1 (100 nM) treatment versus that of ET-1 (100 nM) are denoted as a double asterisk (“**”) The statistical differenced were determined by one-way ANOVA and Student-Newman-Keuls multiple comparison test (p<0.05). Thus, addition of ET-1 increased the nitrite levels nearly 2-fold when compared to control cells or cells treated with PD-142893.

rat optic nerve = experiment: Anterograde axonal transport in rat optic nerve after intravitreal injection (35S-methionine pulse label); assay type: in vivo; conditions: for effect of ET-1 on anterograde axonal transport: intravitreal 2 nmol
Text: Newly synthesized proteins undergoing anterograde axonal transport in the optic nerve were pulse-labeled in either the presence or absence of endothelin as modified from previously published methods (van Biesen et al., 1995). Modifications to previously published methods were minimal and involved the replacement of a distilled water vehicle for resuspension of radiolabeled precursors with either HEPES buffered ET-1 or HEPES vehicle buffer alone. ^35S-Methionine (Easytag EXPRESS PROTEIN LABELING MIX, Dupont-NEN Life Sciences, Boston, Mass.) was lyophilized and resuspended in either vehicle alone (10 mM HEPES, pH 7.4, Sigma Chemical Co., St Louis, Mo.) or in vehicle containing 500 μM ET-1 (Bachem, Belmont, Calif.). Rats were anesthetized by Metofane inhalation, and 0.8 mCi (4 μl) of radiolabel in vehicle either plus or minus ET-1 (final dose 2 mmols), was injected into the vitreous of the left eye using a 30 gauge needle attached to a Hamilton syringe (microliter #710, 22s gauge, Hamilton Co., Reno, Nev.) by polyethylene tubing (PE-20, Clay Adams Brand, Becton Dickson and Co., Sparks, Md.) (van Biesen et al., 1995). In one experiment, ET-3 was substituted for ET-1, using the same methods (2 mmol dose, 28 hour ISI, N=7 for controls, N=7 for experimentals). […] One minute after injection, all retinas appeared normal in color. (Based upon these initial observations, further observations of the retinas were not performed). Information on the dose-related effect(s) of intravitreal ET-1 in this species (i.e. rat) were unavailable, and physiological/pathological concentrations of endothelin in the optic nerve head's microenvironment are generally unknown. Therefore, dose selection was made on the basis of a small pilot study, using these methods and measuring the total pulse-labeled protein axonally transported into the rat optic nerve. (An N of 3 rats in every group was used only for the pilot study, 4 hour ISI, data not shown). […] However, significant effects on axonal transport (4 hour ISI) were only seen in the pilot study for the 2 mmol dose. […] Possible effect(s) on non-assayed ocular tissues were not considered in dose selection, as data on these were unavailable for either acute or chronic intravitreal ET-1 administration, in rats.
This technique was employed to determine if endothelin-1 also affected the axonal transport in the optic nerve of rats, which is severely compromised in glaucoma. Harvest and preparation of pulse-labeled optic nerves in animals, wherein animals were anesthetized with metofane at specified times after injection and sacrificed by decapitation. Injection-sacrifice intervals were selected based upon the published characterizations of anterograde axonal transport in rat optic nerve for specific marker proteins associated with specific classes of axonally transported materials (Table 4) (Elluru et al., 1995; Garner and Lasek, 1981; Garner and Lasek, 1982; Jahn et al., 1985). Seven vehicle-treated animals and seven endothelin-treated animals were sacrificed at each of the specified times (4, 24, 28, 32, 36 hours and 4, 21 days). Optic nerves were removed, flash frozen with crushed dry ice, and sectioned frozen. Nerves were sectioned to aid complete homogenization, and to provide additional data for future studies. The frozen sections (2 mm in length) were numbered as segments 1-4 (from proximal to distal), and glass-on glass homogenized in 100 μlof BUST sample buffer (2% β-mercaptoethanol, 8M urea, 1% SDS, 0.1M Tris, 0.02% phenol red, pH 7.4). A 25% aliquot of each homogenized segment was counted in a liquid scintillation counter, and counts were corrected for decay, quench, and counting efficiency.

NOS2 = NOS2 mRNA expression in HNPE cells by RT-PCR; assay type: cell-based, human; conditions: 100 nM ET-1, 24 hours, qualitative, vs non-treated controls
Text: Utilizing the powerful technique of RT-PCR on mRNA transcripts of NOS2, the amplified products were separated on an agarose gel and compared with untreated control RT_PCR products. […] RT-PCR products of the β-actin housekeeping gene were also amplified and visualized on an agarose gel as a mRNA isolation control.

ET-1: active 21 amino acid residue endothelin peptide (Bachem) (CSCSSLMDKECVYFCHLDIIW; ends and bridges not checked; cysteine pairing not given here; UniProt P05305 53-73, looked up)
mRNA expression of inducible nitric oxide synthase-2 (NOS-2) in the retina (NOS-2): causes the mRNA expression of inducible nitric oxide synthase-2 (NOS-2)
increase of nitrite levels compared to control cells [1]: ~2 fold
total pulse-labeled protein axonally transported into the rat optic nerve (pilot study) (rat optic nerve; 0.3, 0.4, and 2 mmol doses intravitreal, 4 hour ISI, significant only for the 2 mmol dose): trend of increasingly enhanced axonal transport
effect of ET-1 on anterograde axonal transport (rat optic nerve; ISI 4 hr, fast component, MBO/small tubulovesicles): significant enhancement; also recorded: increased
effect of ET-1 on anterograde axonal transport (rat optic nerve; ISI 24 hr, fast component, MBO/small tubulovesicles): significant enhancement; also recorded: increased
effect of ET-1 on anterograde axonal transport (rat optic nerve; ISI 28 hr, fast component, MBO/mitochondria): significant reduction; also recorded: decreased
effect of ET-1 on anterograde axonal transport (rat optic nerve; ISI 32 hr, fast component, MBO/mitochondria): significant reduction; also recorded: decreased
effect of ET-1 on anterograde axonal transport (rat optic nerve; ISI 36 hr, fast component, MBO/mitochondria): significant reduction; also recorded: decreased
effect of ET-1 on anterograde axonal transport (rat optic nerve; ISI 4 days, SCa, cytoplasmic matrix proteins): significant reduction; also recorded: decreased
effect of ET-1 on anterograde axonal transport (rat optic nerve; ISI 21 days, SCb, cytoskeletal proteins): significant reduction; also recorded: decreased
NOS2 mRNA levels (NOS2): elevated mRNA levels of NOS2
